Laboratory results as given in patent publication US9119853B2, “Sanglifehrin based compounds” (priority 2010, dated 2015).
Values after ≈ are worked out from the molar mass of the structure shown. Where two headings read alike, the source gives them in different places.

How the values were obtained:
[1] = test system: HCV genotype 1b I389luc-ubi-neo/NS3-3'/5.1 replicon in Huh5.2 cells; assay: microbe, parasite or virus in culture; assay type: cell-based, Hepatitis C Virus
[2] = Solubility in PBS pH 7.4; details: for solubility compared to sanglifehrin A (5) and cyclosporine A (1) (in words): PBS pH 7.4; for solubility at 4 h: PBS, pH 7.4, aqueous buffer, kinetic from dmso stock
[3] = Anti-metabolic effect (MTS) in the replicon cell line; details: human
[4] = pH 7.4
[5] = test system: HIV (pNL4.3-GFP / pNL4.3-BaL-GFP) in CD4+ HeLa cells; assay: microbe, parasite or virus in culture; assay type: cell-based; details: for EC50: Human immunodeficiency virus 1, BAL, HeLa, 48 h, read-out: HeLa cells EC50; for potency at inhibiting HIV infection compared to cyclosporine A, 1 (in words): four cell types
[6] = test system: HIV (pNL4.3-GFP / pNL4.3-BaL-GFP) in Jurkat cells; assay: microbe, parasite or virus in culture; assay type: cell-based; details: Human immunodeficiency virus 1, BAL, 48 h, read-out: T cells EC50
[7] = test system: HIV (pNL4.3-GFP / pNL4.3-BaL-GFP) in CD4+ T-lymphocytes; assay: microbe, parasite or virus in culture; assay type: cell-based; details: Human immunodeficiency virus 1, BAL, T-lymphocyte, 48 h, read-out: CD4+ T-lymphocytes EC50
[8] = test system: HIV (pNL4.3-GFP / pNL4.3-BaL-GFP) in macrophages; assay: microbe, parasite or virus in culture; assay type: cell-based; details: Human immunodeficiency virus 1, BAL, Macrophage, 48 h, read-out: Macrophages EC50
[9] = test system: HBV in HepG2 2.2.15 cells; assay: HBV antiviral assay (HBV DNA by qPCR); assay type: cell-based, Hepatitis B Virus; details: Hepatitis B virus, HepG2 2.2.15, […], read-out: HBV EC50
[10] = Cell viability (dye uptake) in the HBV assay; assay type: cell-based; details: human, HepG2 2.2.15 cells; read-out: TC50
Experimental: Antiviral efficacy against HBV may be tested as follows: HepG2 2.2.15 cells are plated in 96-well microtiter plates. After 16-24 hours the confluent monolayer of HepG2 2.2.15 cells is washed and the medium is replaced with complete medium containing various concentrations of a test compound in triplicate (eg six half-log concentrations). Three days later the culture medium is replaced with fresh medium containing the appropriately diluted test compounds. Six days following the initial administration of the test compound, the cell culture supernatant is collected, treated with pronase and then used in a real-time quantitative TaqMan qPCR assay. The PCR-amplified HBV DNA is detected in real-time by monitoring increases in fluorescence signals that result from the exonucleolytic degradation of a quenched fluorescent probe molecule that hybridizes to the amplified HBV DNA. For each PCR amplification, a standard curve is simultaneously generated using dilutions of purified HBV DNA. Antiviral activity is calculated from the reduction in HBV DNA levels (IC50). A dye uptake assay is then employed to measure cell viability, which is used to calculate toxicity (TC50). The therapeutic index (TI) is calculated as TC50/IC50.

[11] = test system: peripheral blood mononuclear cells (PBMC); assay: Mixed lymphocyte reaction (MLR) for immunosuppressant activity; assay type: cell-based, human; details: for IC50: Homo sapiens, PBMC, read-out: Human MLR IC50; for immunosuppressive activity (in words): MLR
[12] = target: T1, GST-CypD / Con1 NS5A-His complex (Homo sapiens, UniProt P30405); assay: biochemical
T1 sequence (P30405 30-207, one chain of several): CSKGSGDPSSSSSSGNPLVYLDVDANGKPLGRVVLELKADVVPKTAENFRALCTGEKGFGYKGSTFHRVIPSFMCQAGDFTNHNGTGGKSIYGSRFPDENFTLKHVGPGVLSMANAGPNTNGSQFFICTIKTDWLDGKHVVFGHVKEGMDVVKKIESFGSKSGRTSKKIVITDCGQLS

[13] = target: T1, GST-CypD / Con1 NS5A-His complex; assay: ELISA analysis of Cyp-NS5A interaction (CypD-NS5A disruption)
[14] = physchem; details: pH 7.4, aqueous buffer, kinetic from dmso stock
[15] = test system: Huh5.2 cells; assay: Anti-metabolic effect (MTS) in the replicon cell line; details: Huh5.2 cells, MTS, 72 hours
[16] = Hepatitis C virus, Huh-5-2, 72 h

| Compound | Selectivity index (CC50/EC50) [1] | potency in the Huh5.2 replicon assay (in words) [1] | EC50 [1, 16] [µM] | EC90 [1, 16] [µM] | solubility compared to sanglifehrin A (5) and cyclosporine A (1) (in words) [2] | solubility at 4 h [2] [µM] | CC50 at 72 h [3] [µM] | further results |
| --- | --- | --- | --- | --- | --- | --- | --- | --- |
| CON(C)C(=O)/C=C/C=C(\C)[C@@H]1C/C=C/C=C/[C@H](O)[C@H](C)[C@@H](O)[C@@H](CCC(C)=O)C(=O)N[C@@H](C(C)C)C(=O)N[C@@H](Cc2cccc(O)c2)C(=O)N2CCCC(N2)C(=O)O1 (some centres unmarked) [compound 10] | >617 | very potent | 0.162 | 0.921 | increased solubility | > 100 | > 100 |  |
| CCN(CC)C(=O)/C=C/C=C(\C)[C@@H]1C/C=C/C=C/[C@H](O)[C@H](C)[C@@H](O)[C@@H](CCC(C)=O)C(=O)N[C@@H](C(C)C)C(=O)N[C@@H](Cc2cccc(O)c2)C(=O)N2CCCC(N2)C(=O)O1 (some centres unmarked) [compound 13] | >490 | very potent | 0.204 | 1.2 | increased solubility | > 100 | > 100 |  |
| CC(=O)CC[C@H]1C(=O)N[C@@H](C(C)C)C(=O)N[C@@H](Cc2cccc(O)c2)C(=O)N2CCCC(N2)C(=O)O[C@H](/C(C)=C/C=C/C(=O)NC(C)C)C/C=C/C=C/[C@H](O)[C@H](C)[C@H]1O (some centres unmarked) [compound 16] | >179 | very potent | 0.56 | 4.6 |  |  | > 100 |  |
| CNC(=O)/C=C/C=C(\C)[C@@H]1C/C=C/C=C/[C@H](O)[C@H](C)[C@@H](O)[C@@H](CCC(C)=O)C(=O)N[C@@H](C(C)C)C(=O)N[C@@H](Cc2cccc(O)c2)C(=O)N2CCCC(N2)C(=O)O1 (some centres unmarked) [compound 19] | >80 |  | 8 | 60.2 | increased solubility | > 100 | > 100 |  |
| CC(=O)CC[C@H]1C(=O)N[C@@H](C(C)C)C(=O)N[C@@H](Cc2cccc(O)c2)C(=O)N2CCCC(N2)C(=O)O[C@H](/C(C)=C/C=C/C(=O)N(C)C)C/C=C/C=C/[C@H](O)[C@H](C)[C@H]1O (some centres unmarked) [compound 22] | >287 | very potent | 0.349 | 6.2 | increased solubility | > 100 | > 100 |  |
| C=CCNC(=O)/C=C/C=C(\C)[C@@H]1C/C=C/C=C/[C@H](O)[C@H](C)[C@@H](O)[C@@H](CCC(C)=O)C(=O)N[C@@H](C(C)C)C(=O)N[C@@H](Cc2cccc(O)c2)C(=O)N2CCCC(N2)C(=O)O1 (some centres unmarked) [compound 25] |  |  | 1.6 | 8.5 | increased solubility |  | 48.4 | Solubility [4]: 96 µM (≈ 78.7 µg/mL) |
| C/C=C/C[C@H]1C(=O)N[C@@H](C(C)C)C(=O)N[C@@H](Cc2cccc(O)c2)C(=O)N2CCCC(N2)C(=O)O[C@H](/C(C)=C/C=C/C(=O)N(C)OC)C/C=C/C=C/[C@H](O)[C@H](C)[C@H]1O (some centres unmarked) [compound 28] | 28.2 | very potent | 0.628 | 4 | increased solubility | 78 (≈ 63 µg/mL) | 17.7 |  |
| CC(=O)CC[C@H]1C(=O)N[C@@H](C(C)C)C(=O)N[C@@H](Cc2cccc(O)c2)C(=O)N2CCCC(N2)C(=O)O[C@H](/C(C)=C/C=C/C(=O)N(CC(C)C)CC(C)C)C/C=C/C=C/[C@H](O)[C@H](C)[C@H]1O (some centres unmarked) [compound 32] |  | very potent | 0.309 | 1.1 |  |  | 2.1 | Solubility [4]: 33 µM (≈ 29.4 µg/mL) |
| CC(=O)CC[C@H]1C(=O)N[C@@H](C(C)C)C(=O)N[C@@H](Cc2cccc(O)c2)C(=O)N2CCCC(N2)C(=O)O[C@H](/C(C)=C/C=C/C(=O)Nc2ccc(-c3ccccc3)cc2)C/C=C/C=C/[C@H](O)[C@H](C)[C@H]1O (some centres unmarked) [compound 41] | >481 | very potent | 0.208 | 1.1 |  |  | > 100 |  |
| CC(=O)CC[C@H]1C(=O)N[C@@H](C(C)C)C(=O)N[C@@H](Cc2cccc(O)c2)C(=O)N2CCCC(N2)C(=O)O[C@H](/C(C)=C/C=C/C(=O)N(C)C2CCCCC2)C/C=C/C=C/[C@H](O)[C@H](C)[C@H]1O (some centres unmarked) [compound 45] | 449 | very potent | 0.148 | 1.9 |  |  | 66.4 |  |
| CC(=O)CC[C@H]1C(=O)N[C@@H](C(C)C)C(=O)N[C@@H](Cc2cccc(O)c2)C(=O)N2CCCC(N2)C(=O)O[C@H](/C(C)=C/C=C/C(=O)Nc2ccccn2)C/C=C/C=C/[C@H](O)[C@H](C)[C@H]1O (some centres unmarked) [compound 48] |  | very potent | 0.167 | 0.737 |  |  | 39.7 | EC50 [5]: 0.25 µM; potency at inhibiting HIV infection compared to cyclosporine A, 1 (in words) [5]: significantly more potent; EC50 [6]: 0.11 µM; EC50 [7]: 0.14 µM; EC50 [8]: 0.21 µM; EC50 [9]: > 32 µM; CC50 at 6 days [10]: > 32 µM; IC50 [11]: 1.06 µM; immunosuppressive activity (in words) [11]: very low levels of immunosuppressive activity; IC50 [12]: 0.38 µM; disruption of the CypD-NS5A complex (in words) [13]: potent disruption |
| CC(=O)CC[C@H]1C(=O)N[C@@H](C(C)C)C(=O)N[C@@H](Cc2cccc(O)c2)C(=O)N2CCCC(N2)C(=O)O[C@H](/C(C)=C/C=C/C(=O)NC2CCCCC2)C/C=C/C=C/[C@H](O)[C@H](C)[C@H]1O (some centres unmarked) [compound 51] | >298 | very potent | 0.336 | 4.2 |  |  | > 100 |  |
| CC(=O)CC[C@H]1C(=O)N[C@@H](C(C)C)C(=O)N[C@@H](Cc2cccc(O)c2)C(=O)N2CCCC(N2)C(=O)O[C@H](/C(C)=C/C=C/C(=O)N2CCCCO2)C/C=C/C=C/[C@H](O)[C@H](C)[C@H]1O (some centres unmarked) [compound 55] | >800 | very potent | 0.125 | 0.691 |  |  | > 100 | EC50 [5]: 0.31 µM; potency at inhibiting HIV infection compared to cyclosporine A, 1 (in words) [5]: significantly more potent; EC50 [6]: 0.22 µM; EC50 [7]: 0.15 µM; EC50 [8]: 0.23 µM; IC50 [11]: 1.45 µM; immunosuppressive activity (in words) [11]: very low levels of immunosuppressive activity; Solubility [14]: > 100 µM; IC50 [12]: 0.23 µM; disruption of the CypD-NS5A complex (in words) [13]: potent disruption |
| CC(=O)CC[C@H]1C(=O)N[C@@H](C(C)C)C(=O)N[C@@H](Cc2cccc(O)c2)C(=O)N2CCC[C@H](N2)C(=O)O[C@H](/C(C)=C/CO)C/C=C/C=C/[C@H](O)[C@H](C)[C@H]1O [hydroxymacrocycle, 6, reference compound] |  | less potent |  |  |  |  |  | EC50 ([1]; read-out: EC50): 8.4 µM; EC90 ([1]; read-out: EC90): 39.7 µM; CC50 [15]: 83.6 µM |
